According to patent US4863951A, “Pharmacologically active amino-5,6,7,8-tetrahydronaphtho [2,3-B] furan compounds” (ADIR Et Cie, priority 1987, dated 1989):
Counter-ions that a name gives are not always drawn.

Legend:
[1] = test system: aggression of isolated, bulbectomized rats; test: Antiaggressive effects: aggression of isolated, bulbectomized rats; type: in vivo; settings: i.p., 2.5 mg.kg^-1, hydrochloride
Excerpt: (§1) The antiaggressive effects of the compounds of the invention were investigated by two methods, one of them testing for an inhibition of aggressive behavior in peviously isolated mice (Yen C. Y., Stanger A. L., and Millman N, Arch. Int. Pharmacodyn. Therap. (1959), 123, p. 179-185), and the other in isolated and bulbectomized rats (Garattini S. and Sigg E. B. "Aggressive Behaviour" p. 47-55 Ed. Excerpta Medica Found., Amsterdam, 1969).
(§2) (Tables IX and X, s=significant, p<0.05).

[2] = test system: apomorphine-induced rearing-up; test: Antagonism of apomorphine-induced rearing-up behavior in mice; type: in vivo; settings: mice, apomorphine 0.75 mg.kg^-1 s.c.; for % inhibition of rearing-up: hydrochloride
Description: Studied in the test of antagonism of apomorphine-induced rearing-up following the subcutaneous administration of a dose of 0.75 mg.kg^-1 of this substance in mice, the compounds of general formula I act in a clear-cut manner at doses greater than or equal to 2.5 mg.kg^-1 (i.p.). The same results are observed when the compounds of general formula I are administered orally at a dose of 20 mg.kg^-1. The activity of the compounds was assessed according to the method described by Protais P, Costentin J and Schwartz J. C. in Psychopharmacology (1976), 50, p. 1-6.
(§3) (s=significant difference, p<0.05).

[3] = test system: ponto-geniculo-occipital (P.G.O.) waves induced by Ro4-1284; test: Antagonism of the ponto-geniculo-occipital (P.G.O.) waves induced by Ro4-1284; type: in vivo; settings: Felis catus, iv, cats, i.v., read-out: ED50 (effective dose inhibiting by 50% the number of P.G.O. waves)
Description: (§4) The antidepressant effects of the compounds of the invention were investigated by assessing the antagonism of reserpine-induced hypothermia and the antagonism of the ponto-geniculo-occipital waves induced by the compound Ro4-1284 in cats.
This study was performed according to the method of Ruch-Monachon M. A., Jalfre M. and Haefely W. described in Arch. Int. Pharm. Therap., (1976), 219, No. 2, p. 251-346, and it enabled the effective dose (i.v) inhibiting by 50% (ED50) the number of P.G.O waves to be assessed.

[4] = test system: isolation-induced aggression; test: Antiaggressive effects: isolation-induced aggression in mice; type: in vivo; settings: isolated mice, i.p., hydrochloride
Excerpt: as §1, §2

[5] = test system: interoceptive stimulus of apomorphine; test: Drug discrimination in rats (generalization with apomorphine); type: in vivo; settings: 2.5 mg.kg^-1 i.p., 30 minutes before test, hydrochloride
Description: Rats were trained to discriminate between the effect of the interoceptive stimulus of apomorphine (0.2 mg.kg^-1 i.p.) and that of physiological saline, according to a principle described by Colpaert F. in "Drug discrimination application in C.N.S. Pharmacology" Ed. Elsevier Biomedical 1982, Amsterdam. […]
Under the experimental conditions employed, the behavior shown by the animals coincides with that noted in the case of administration of apomorphine.

[6] = test system: apomorphine-induced hypothermia; test: Antagonism with respect to apomorphine-induced hypothermia in mice; type: in vivo; settings: mice, apomorphine 1 mg.kg^-1 s.c., after 2 hours; for % antagonism of hypothermia: hydrochloride
Description: Testing for an antagonism with respect to apomorphine-induced hypothermia in mice was performed according to the method described by CHERMAT R. and PONCELET M. in J. Pharmac. (1983), 14, No. 1, p. 93-97. The dose of apomorphine administered subcutaneously was 1 mg.kg^-1. Tables VII and VIII show the percentage antagonism of the hypothermia observed after 2 hours.

[7] = test system: reserpine-induced hypothermia; test: Antagonism of reserpine-induced hypothermia; type: in vivo, Swiss CD male mice; settings: mice, reserpine 2.5 mg.kg^-1 i.p.
Description: as §4
The study is carried out on Swiss CD male mice (27-28 g). After distribution into groups of 10 animals each, reserpine is injected intraperitoneally at a dose of 2.5 mg.kg^-1. Three hours later, the compounds undergoing trial are administered intraperitoneally. The rectal temperature of the animals is measured one hour and two hours after the second treatment, and compared with the initial temperature To of these same animals, measured immediately before the administration of the compounds undergoing trial.

[8] = test system: apomorphine-induced stereotypy; test: Antagonism of apomorphine-induced stereotypy in rats; type: in vivo; settings: Rattus norvegicus, ip, 0.5 h, rats, apomorphine 1.5 mg.kg^-1 i.p., 30 minutes, read-out: % ISS (inhibition (-) or potentiation (+) of the stereotypy score)
Description: (§5) The inhibitory activity of the compounds of the invention with respect to apomorphine- or amphetamine-induced stereotypy in rats was assessed using the scale of scoring of stereotyped movements described by Quinton R. M. and Halliwell G. in Nature (1963), 200, p. 178-179.
Apomorphine or amphetamine was administered to the animals intraperitoneally at a dose of 1.5 mg.kg^-1. The percentage inhibition (-) or potentiation (+) of the stereotypy score (% ISS) shown in Tables IV and V for apomorphine corresponds to a measurement time of 30 minutes. In contrast, the percentage inhibition of the stereotypy score shown in Table VI for amphetamine corresponds to a measurement time of 3 hours. […]

[9] = test system: amphetamine-induced stereotypy; test: Antagonism of amphetamine-induced stereotypy in rats; type: in vivo; settings: 3 hours
Description: as §5
Apomorphine or amphetamine was administered to the animals intraperitoneally at a dose of 1.5 mg.kg^-1. The percentage inhibition (-) or potentiation (+) of the stereotypy score (% ISS) shown in Tables IV and V for apomorphine corresponds to a measurement time of 30 minutes. In contrast, the percentage inhibition of the stereotypy score shown in Table VI for amphetamine corresponds to a measurement time of 3 hours.
as §3

SMILES: NC1CCc2cc3c(cc2C1)OCC3 (stereo not drawn) [Example 3, d-7-Amino-2,3,5,6,7,8-hexahydronaphtho[2,3-b]furan hydrochloride]
- % of rats rendered non-aggressive [1]: 64%
- % inhibition of rearing-up ([2]; i.p. dose 10 mg.kg^-1): -72%
- % inhibition of rearing-up ([2]; i.p. dose 20 mg.kg^-1): -79%
- ED50 [3]: 0.13 mg/kg
- % of pairs of mice showing no sign of fighting ([4]; 2.5 mg.kg^-1): 56%
- % of pairs of mice showing no sign of fighting ([4]; 5 mg.kg^-1): 78%
- % of animals which generalize [5]: 88%
- Number of animals showing the effect of generalization with apomorphine [5]: 8/9
- % antagonism of hypothermia ([6]; i.p. dose 2.5): -72%
- % antagonism of hypothermia ([6]; i.p. dose 5): -79%
- % antagonism of hypothermia ([6]; i.p. dose 10): -91%
- % antagonism of hypothermia ([6]; i.p. dose 20): -86%

SMILES: O=C(O)CCCCCCNC1CCc2cc3c(cc2C1)OCC3 (racemic) [Example 12, dl-7-{N-(2,3,5,6,7,8-Hexahydronaphtho[2,3-b]furan-7-yl)amino}heptanoic acid hydrochloride]
- change in vivo at 10 mg/kg ([2]; Mus musculus, ip, i.p. dose 10 mg.kg^-1, read-out: % inhibition of rearing-up): -17%
- change in vivo at 20 mg/kg ([2]; Mus musculus, ip, i.p. dose 20 mg.kg^-1, read-out: % inhibition of rearing-up): -20%
- ED50 [3]: > 2.52 mg/kg
- % inhibition of hypothermia ([7]; 5 mg.kg^-1 i.p.): -23%
- % inhibition of hypothermia ([7]; 10 mg.kg^-1 i.p.): -45%
- % inhibition of hypothermia ([7]; 20 mg.kg^-1 i.p.): -18%
- change in vivo at 10 mg/kg ([6]; Mus musculus, ip, i.p. dose 10, read-out: % antagonism of hypothermia): -4%
- change in vivo at 20 mg/kg ([6]; Mus musculus, ip, i.p. dose 20, read-out: % antagonism of hypothermia): -2%
- change in vivo at 10 mg/kg ([8]; i.p. dose 10 mg.kg^-1): 19%
- change in vivo at 20 mg/kg ([8]; i.p. dose 20 mg.kg^-1): -3%
- % ISS (inhibition (-) or potentiation (+) of the stereotypy score) ([9]; i.p. dose 5 mg.kg^-1, amphetamine 1.5 mg.kg^-1 i.p.): +11%
- % ISS (inhibition (-) or potentiation (+) of the stereotypy score) ([9]; i.p. dose 10 mg.kg^-1, amphetamine 1.5 mg.kg^-1 i.p.): +14%
